In patent US20220274947A1, “NOVEL HETEROARYL-TRIAZOLE COMPOUNDS AS PESTICIDES” (Bayer Aktiengesellschaft, priority 2019, published 2022):

Assays:
Type in all cases: in vivo
Myzus persicae [1] = assay: Myzus persicae spray test; conditions: in Brassica rapa, foliar, 120 h; for mortality at 100 g/ha: read-out: activity (mortality), application rate 100 g/ha, spray, Chinese cabbage leaf disks, after 5 days
Protocol: Myzus persicae—Spray Test Solvent: 78.0 parts by weight acetone • 1.5 parts by weight dimethylformamide Emulsifier: alkylarylpolyglycol ether To produce a suitable preparation of active compound, 1 part by weight of active compound is mixed with the stated amount of solvents and is diluted with water, containing an emulsifier concentration of 1000 ppm, to the desired concentration. Further test concentrations are prepared by dilution with emulsifier containing water.
Chinese cabbage (Brassica pekinensis) leaf disks infected with all instars of the green peach aphid (Myzus persicae), are sprayed with a preparation of the active ingredient of the desired concentration.
After 5 days mortality in % is determined. 100% means all aphids have been killed and 0% means none of the aphids have been killed.

Rhipicephalus microplus [2] = assay: Rhipicephalus (Boophilus) microplus in-vitro contact test, larval cattle tick, strain Parkhurst (BOOPMI Cont); conditions: application rate 5 μg/cm^2 (=500 g/ha), tick larvae, after 48 hours, read-out: activity (efficacy: 100% means all larvae are dead or moribund)
Method in brief: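 After 48 h at 27° C. and 85% humidity, percent dead or moribund larvae was scored from negative geotactic behaviour. Larvae (20-50, Parkhurst strain, synthetic pyrethroid-resistant) were exposed in tubes coated with compound from acetone, 900 ppm corresponding to 5 μg/cm^2.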

Spodoptera frugiperda = Spodoptera frugiperda spray test; conditions: in Zea mays, 168 h, read-out: activity (mortality)
Method in brief: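 Percent kill of fall armyworm caterpillars was assessed 7 days after infesting dried, treated maize leaf sections. Treatment was a spray of compound in acetone/dimethylformamide, diluted with water containing emulsifier at 1000 ppm.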

Rhipicephalus microplus [3] = assay: Rhipicephalus (Boophilus) microplus injection test (BOOPMI Inj); conditions: 168 h, injection into adult engorged female ticks, egg deposition after 7 days, read-out: activity (efficacy: 100% means all eggs are infertile); for pest or weed control at 0.004 mg: application rate 4 μg/tick; for pest or weed control at 0.02 mg: application rate 20 μg/tick
Method in brief: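 Compound in DMSO, 1 μL, injected abdominally into five adult engorged females, which were then held in a climate chamber. Read-out is egg fertility, scored from deposition at 7 days, with unclear eggs followed to hatching (~42 days); 0% means all eggs fertile, 100% all infertile.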

Rhipicephalus sanguineus = Rhipicephalus sanguineus in-vitro contact test, adult brown dog ticks (RHIPSA Cont); conditions: 48 h, after 48 hours, read-out: activity (efficacy: 100% means all ticks are dead or moribund); for pest or weed control at 1 µg/cm2, 100 g/ha: application rate 1 μg/cm^2 (=100 g/ha); for pest or weed control at 5 µg/cm2, 500 g/ha: application rate 5 μg/cm^2 (=500 g/ha)
Method in brief: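 Compound in acetone was coated onto the inner walls of glass tubes and dried by rotation before adult brown dog ticks were exposed. Efficacy was scored at 48 h. Ticks unable to climb away from a 45–50 °C heating plate within 5 min counted as dead or moribund.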

[4] = tested on: Aedes aegypti strain MONHEIM; assay: Aedes aegypti test (AEDSAE surface treatment & contact assay); conditions: surface concentration 20 mg/m^2, glazed tile, exposure 30 minutes, 24 hours after contact, read-out: efficacy (mortality)
Method in brief: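 Compound dissolved in acetone (2 mg/ml) with 2000 ppm rapeseed oil methyl ester, pipetted onto glazed tile and dried. Adult mosquitoes exposed on the surface for 30 min; percent mortality scored 24 h after contact.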

[5] = tested on: Musca domestica strain WHO—N; assay: Musca domestica test (MUSCDO surface treatment & contact assay); conditions: exposure 30 minutes, 24 hours after contact, read-out: efficacy (mortality); for mortality at 4 mg/m2: surface concentration 4 mg/m^2, glazed tile; for mortality at 20 mg/m2: surface concentration 20 mg/m^2, glazed tile
Method in brief: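 Compound dissolved in acetone (2 mg/ml) with 2000 ppm rapeseed oil methyl ester and pipetted onto glazed tile; after acetone evaporation, adult flies exposed to dried surface for 30 minutes. Mortality (%) scored 24 hours after contact.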

Diabrotica balteata = Diabrotica balteata spray test; conditions: 168 h, wheat seeds, larvae, after 7 days, read-out: activity (efficacy: 100% means all seedlings have grown up like in the untreated, uninfected control); for pest or weed control at 32 µg/disc, 100 g/ha: application rate 100 g/ha (=32 μg/well)
Method in brief: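 Efficacy (%) was scored 7 days after spraying, with 100% meaning growth like the untreated, uninfected control and 0% meaning no seedling grew. Spray solutions of compound in acetone/DMF with emulsifier-containing water went onto 1-day-germinated wheat seeds, and each unit was then infested with 10-20 banded cucumber beetle larvae.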

Nezara viridula = Nezara viridula spray test; conditions: in Hordeum vulgare, 96 h, barley plants, larvae, after 4 days; for mortality at 100 g/ha: application rate 100 g/ha; for mortality at 500 g/ha: application rate 500 g/ha
Protocol: Nezara viridula—Spray Test Solvent: 78.0 parts by weight of acetone • • 1.5 parts by weight of dimethylformamide Emulsifier: alkylarylpolyglycol ether
To produce a suitable preparation of active compound, 1 part by weight of active compound is mixed with the stated amount of solvent, and the concentrate is diluted with water, containing an emulsifier concentration of 1000 ppm, to the desired concentration. Further test concentrations are prepared by dilution with emulsifier containing water.
Barley plants (Hordeum vulgare) infested with larvae of the southern green stink bug (Nezara viridula) are sprayed with a test solution containing the desired concentration of the active ingredient.
After 4 days mortality in % is determined. 100% means all the stink bugs have been killed; 0% means none of the stink bugs have been killed.

Myzus persicae [6] = assay: Myzus persicae oral test; conditions: 120 h, read-out: activity (mortality)
Method in brief: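 Percent mortality was recorded at day 5, where 0% means no aphids killed. Compound prepared from an acetone concentrate diluted in water and combined with IPL41 medium containing sugar was offered to mixed-stage green peach aphids, which sucked it through a parafilm seal.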

Ctenocephalides felis [7] = assay: Ctenocephalides felis in-vitro contact test, adult cat flea (CTECFE Cont); conditions: application rate 5 μg/cm^2 (=500 g/ha), adult cat fleas, after 48 hours, read-out: activity (efficacy: 100% means all fleas are dead or moribund)
Method in brief: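 Efficacy, as percent of fleas dead or moribund, was scored 48 h after adults (5-10 per tube) were placed in glass tubes whose walls carried dried compound at 5 μg/cm^2 (900 ppm solution). Moribund meant failing to climb away from a 45-50° C. hot plate within 5 min.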

Ctenocephalides felis [8] = assay: Ctenocephalides felis oral test (CTECFE Oral); conditions: 48 h, read-out: activity (mortality)
Method in brief: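 Percent mortality was recorded 2 days after roughly 20 adult Ctenocephalides felis fed on treated cattle blood. The blood was warmed to 37 °C beneath a parafilm membrane, with the fleas kept at room temperature. Compound was dissolved in DMSO and diluted into the blood to test concentration.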

SMILES	mortality at 100 g/ha (Myzus persicae [1])	pest or weed control at 5 µg/cm2 (Rhipicephalus microplus [2])	mortality at 100 g/ha (Spodoptera frugiperda)	pest or weed control at 0.004 mg (Rhipicephalus microplus [3])	pest or weed control at 0.02 mg (Rhipicephalus microplus [3])	pest or weed control at 1 µg/cm2, 100 g/ha (Rhipicephalus sanguineus)	pest or weed control at 5 µg/cm2, 500 g/ha (Rhipicephalus sanguineus)	mortality at 20 mg/m2 [4]	mortality at 4 mg/m2 [5]	mortality at 20 mg/m2 [5]	pest or weed control at 32 µg/disc, 100 g/ha (Diabrotica balteata)	mortality at 100 g/ha (Nezara viridula)	mortality at 0.8 ppm (Myzus persicae [6])	mortality at 4 ppm (Myzus persicae [6])	pest or weed control at 5 µg/cm2 (Ctenocephalides felis [7])	mortality at 500 g/ha (Nezara viridula)	mortality at 500 g/ha (Myzus persicae [1]; read-out: activity (mortality), application rate 500 g/ha, spray, Chinese cabbage leaf disks, after 5 days)	mortality at 500 g/ha (Spodoptera frugiperda)	pest or weed control at 160 µg/disc, 500 g/ha (Diabrotica balteata; application rate 500 g/ha (=160 μg/well))	mortality at 100 ppm (Ctenocephalides felis [8])
C[C@H](NC(=O)c1cc(C(F)(F)F)cc(C(F)(F)F)c1)c1nc(C(C)(C)C)nn1-c1ccc(C#N)cn1 [I-37]	90%	100%	100%	100%	100%	100%	100%	80 to 100%	80 to 100%	80 to 100%	100%	100%	–	–	–	–	–	–	–	–
COc1nc([C@H](C)NC(=O)c2cc(OC(F)F)cc(OC(F)F)c2)n(-c2ccc(C#N)cn2)n1 [I-64]	90%	100%	100%	–	–	–	80%	–	–	–	100%	90%	100%	100%	90%	100%	–	–	–	–
COc1nc([C@H](C)NC(=O)c2cc(OC(F)F)cc(C(F)F)c2)n(-c2ccc(C#N)cn2)n1 [I-65]	90%	100%	100%	–	–	–	80%	–	–	–	100%	–	–	100%	–	100%	–	–	–	–
C[C@H](NC(=O)c1cc(C(F)(F)F)cc(C(F)(F)F)c1)c1ncnn1-c1ncc(I)s1 [II-39]	–	100%	100%	100%	100%	100%	100%	80 to 100%	80 to 100%	80 to 100%	100%	–	–	–	–	90%	100%	100%	100%	–
Cc1nc([C@H](C)NC(=O)c2cc(C(F)(F)F)cc(C(F)(F)F)c2)n(-c2ccc(C(=O)N(C)C(C)C)cn2)n1 [II-92]	90%	100%	100%	100%	–	100%	100%	–	–	–	–	90%	–	100%	100%	–	–	–	–	–
Cc1nc([C@H](C)NC(=O)c2cc(C(F)(F)F)cc(C(F)(F)F)c2)n(-c2ccc(C(=O)N(C)C)cn2)n1 [II-100]	100%	100%	100%	100%	–	100%	100%	–	–	–	–	100%	100%	100%	100%	–	–	–	–	–
Cc1nc([C@H](C)NC(=O)c2cc(Br)cc(OC(F)(F)F)c2)n(-c2cc(C#N)ccn2)n1 [II-106]	90%	100%	100%	100%	–	100%	100%	–	–	–	100%	–	–	100%	90%	–	–	–	–	100%
CCSc1cc(C#N)cc(C(=O)N[C@@H](C)c2ncnn2-c2ccc(C#N)cn2)c1 [II-109]	90%	100%	–	100%	–	100%	100%	–	–	–	100%	100%	90%	100%	100%	–	–	–	–	–
Cc1nc([C@H](C)NC(=O)c2cc(C(F)F)cc(C(F)F)c2)n(-c2ccc(C#N)cn2)n1 [II-114]	90%	100%	83%	–	–	100%	100%	–	–	–	100%	100%	100%	100%	100%	–	–	–	–	–
